Reference: patent US5242945A, “Tetronic and thiotetronic acid derivatives as phospholipase A2 inhibitors” (American Home Products Corporation, priority 1991, dated 1993)

Legend:
[1] = tested on: purified PLA2, from the diamond back cotton mouth snake (A. piscivorus piscivorus); assay: in vivo PLA2 murine paw edema assay; set-up: species or system A. piscivorus piscivorus PLA2 in CD-1 mice
Description: The ability of the compounds of the invention to inhibit paw edema induced by the exogenous administration of PLA2 is measured in the in vivo PLA2 murine paw edema assay.
Non-fasted, male CD-1 mice (8 weeks old; 31-36 grams) are placed in plastic boxes in groups of six. The right hind paw volume is measured using mercury plethysmography (zero time). Compounds are dosed orally (0.5 mL of 0.5% Tween-80) 1 or 3 hours prior to PLA2 injection or intravenously (0.2 mL in 0.3% dimethylsulfoxide/saline) 3 minutes prior to PLA2 injection. A solution of purified PLA2, from the diamond back cotton mouth snake (A. piscivorus piscivorus) is prepared in saline at a concentration of 6 μg/mL. Fifty (50) μL (0.3 μg) of this PLA2 solution is injected subcutaneously into the right hind paw with a plastic 1 mL plastic syringe (27 gauge, 1" needle). Paw volume of the injected paw is measured again at 10 minutes, 30 minutes and 60 minutes after PLA2 injection. Animals are euthanized with CO2 at the completion of the study.
The paw edema is calculated by subtracting the zero time volume from the volume recorded at each time period. Mean paw edema for each treatment group is then calculated and expressed as (μL±S.E.). Drug effects are expressed as a percent change from control (vehicle) values. Statistical significance is determined by a one-way analysis of variance with LSD comparison to control (p<0.05). ED50 's are determined using […].

[2] = tested on: lipoxygenase and/or cyclooxygenase pathways of arachidonic acid metabolism; assay: in vivo murine zymosan peritonitis assay; set-up: species or system mouse (CD-1); conditions: 100 mg/kg p.o.; negative values denote potentiation
Description: The compounds of the invention are evaluated for their ability to inhibit the lipoxygenase and/or cyclooxygenase pathways of arachidonic acid metabolism in the in vivo murine zymosan peritonitis assay.
Male CD-1 mice (8 weeks old) are placed in plastic boxes in groups of six. Animals are injected with 1 mL i.p. of either 1% zymosan in pyrogen free 0.9% saline or saline (unstimulated control). Compounds are dosed orally 1 hour prior to zymosan injection. Twenty minutes after zymosan injection, the mice are asphyxiated by CO2 inhalation and the peritoneal cavity is lavaged with 2 mL ice cold Hanks Balanced Salt Solution (HBSS) without CaCl2, MgSO4. 7H2 O and MgCl2.6H2 O. Peritoneal lavage fluid from each mouse is removed by syringe and placed in 5 mL plastic test tubes put on ice and volume is noted. Preparation of samples for evaluation by ELISA is as follows: Samples are centrifuged at 800 xg for 15 minutes; 1 mL of the supernatant is added to 8 mL ice cold methanol and kept at -70° C. overnight to precipitate protein; and samples are then centrifuged at 800 xg for 15 minutes, followed by a drying procedure in a Savant speed vac concentrator. The samples are reconstituted with 1 mL ice cold ELISA buffer and stored at -70° C. until assayed. The assay for eicosanoids (LTC4 and 6-keto-PGF1α) is performed according to conventional ELISA procedures.
Compounds to be tested orally are suspended in 0.5% Tween 80. Compounds to be tested intraperitoneally are suspended in 0.5% methylcellulose in 0.9% saline.
The total metabolite level in lavage fluid/mouse is calculated and the significance is determined by a one-way analysis of variance with LSD comparisons to control (p≤0.05). Drug effects are expressed as a percent change from control values.

carrageenan paw edema = assay: rat carrageenan paw edema assay; assay type: in vivo, rat (Sprague-Dawley)
Description: The compounds of the invention are further tested in the rat carrageenan paw edema assay to determine their ability to inhibit the acute inflammatory response.
140-180 g Male Sprague-Dawley rats, in groups of 6 animals are injected subcutaneously in the right paw with 0.1 mL of 1% carrageenan at zero time. Mercury plethysmographic readings (mL) of the paw are made at zero time and 3 hours later. Test compounds are suspended or dissolved in 0.5% methylcellulose and given perorally 1 hour prior to carrageenan administration.
The increase in paw volume (edema in mL) produced by the carrageenan is measured. Paw edema is calculated (3 hour volume minus zero time volume), and percent inhibition of edema is determined. Unpaired Student's t-test is used to determine statistical significance.

[3] = tested on: purified PLA2, from the diamond back cotton mouth snake (A. piscivorus piscivorus); assay: in vivo PLA2 murine paw edema assay; set-up: species or system A. piscivorus piscivorus PLA2 in CD-1 mice; remark: listed apart in the source

CCCCCCCCCC(=O)C1=C(O)COC1=O [Example 1, 4-Hydroxy-3-(1-oxodecyl)-2(5H)-furanone]
% Change in Edema 10 min ([1]; 10 mg/kg i.v.): -51% | % Change in Edema 30 min ([1]; 10 mg/kg i.v.): -43% | % Change in Edema 60 min ([1]; 10 mg/kg i.v.): -23% | % Change in Edema 10 min ([1]; 100 mg/kg p.o.): -36% | % Change in Edema 30 min ([1]; 100 mg/kg p.o.): -29% | % Change in Edema 60 min ([1]; 100 mg/kg p.o.): -29% | % Inhibition 6-keto-PGF [2]: -58% | % Inhibition LTC4 [2]: -58% | % Inhibition (carrageenan paw edema; 50 mg/kg peroral): 40%

CCCCCCCC/C=C\CCCCCCCC(=O)C1=C(O)COC1=O [Example 9, (Z)-4-Hydroxy-3-(1-oxo-9-octadecenyl)-2(5H)-furanone]
% Change in Edema 10 min ([1]; 10 mg/kg i.v.): -48% | % Change in Edema 30 min ([1]; 10 mg/kg i.v.): -42% | % Change in Edema 60 min ([1]; 10 mg/kg i.v.): -48% | % Change in Edema 10 min ([1]; 100 mg/kg p.o.): -1% | % Change in Edema 30 min ([1]; 100 mg/kg p.o.): +1.5% | % Change in Edema 60 min ([1]; 100 mg/kg p.o.): +7.1% | % Inhibition (carrageenan paw edema; 100 mg/kg peroral (dose column)): 41%

CCCC/C=C\CCCCCCCC(=O)C1=C(O)COC1=O [Example 25, 4-Hydroxy-3-((Z)-1-oxo-9-tetradecenyl)-2(5H)-furanone]
% Change in Edema 10 min ([3]; 1 mg/kg i.p.): -50% | % Change in Edema 30 min ([3]; 1 mg/kg i.p.): -65% | % Change in Edema 60 min ([3]; 1 mg/kg i.p.): -1% | % Change in Edema 10 min ([3]; 10 mg/kg i.p.): -38% | % Change in Edema 30 min ([3]; 10 mg/kg i.p.): -44% | % Change in Edema 60 min ([3]; 10 mg/kg i.p.): -18% | % Change in Edema 10 min ([3]; 200 mg/kg p.o.): -40% | % Change in Edema 30 min ([3]; 200 mg/kg p.o.): -33% | % Change in Edema 60 min ([3]; 200 mg/kg p.o.): -43%
